The test system of this assay is fulvestrant-resistant MCF7:5C-FR cells. As to the kind of experiment: Fulvestrant-resistant breast cancer cell viability (cell proliferation) assay. Format: cell-based. Particulars: growth inhibition in fulvestrant-resistant MCF-7:CFR cells, 120 hrs. The method, then: For the cell proliferation assay, the fulvestrant-resistant MCF7:5C-FR cells were seeded at about 2000 to about 2500/well in 96-well plates. The next day, compounds were add to the cells at desired serial concentrations form 3 nM to 10 uM. A final 0.1% (v/v) DMSO was used as vehicle control and 1 uM JQ1 was used as positive. The cell were grown in the normal culture condition for 120 hrs. Then the Hoechst 33342 dye were add to each well at a final concentration of 5 μg/ml, and put back to the incubator at 37 C for 90 min. The plates were scanned immediately after the incubation with Celigo (Nexcelcom Biocesnse) for the fluorescence of the nuclear using DAPI channel, and the cell number was counted thought the analysis function of the Celigo software. The normalized cell number to the vehicle control was used to represent the cell proliferation. […] N.D.=Not determined.

pIC50: −log10 of the molar value.

A word on the pIC50: it is −log10 of the IC50, conventionally taken in molar units. Higher therefore signals a small IC50. The molecule `CCS(=O)(=O)Nc1cccc2c1nc(-c1cn(C)c3c(O)nccc13)n2Cc1ccccc1C(F)(F)F` [Compound 62, N-(2-(7-hydroxy-1-methyl-1H-pyrrolo[2,3-c]pyridin-3-yl)-1-(2-(trifluoromethyl)benzyl)-1H-benzo[d]imidaol-4-yl)ethanesulfonamide] showed a pIC50 (120 h) of under 7.00.
Under “120 h”, `Cc1cc(F)cc(C)c1Cn1ccc2cc(NS(C)(=O)=O)cc(-c3cn(C)c4c(O)nccc34)c21` [Compound 22, N-(1-(4-fluoro-2,6-dimethylbenzyl)-7-(7-hydroxy-1-methyl-1H-pyrrolo[2,3-c]pyridin-3-yl)-1H-indol-5-yl)methanesulfonamide] gave a pIC50 of 6.28.
The same measure, in the same setting: in the case of `O=C(c1cccc(-c2ccc(F)cc2)c1)c1c[nH]c2c(O)nccc12` [Compound 3, (4′-fluoro-[1,1′-biphenyl]-3-yl)(7-hydroxy-1H-pyrrolo[2,3-c]pyridin-3-yl)methanone] it was under 6.00; in that of `CCS(=O)(=O)Nc1cc(-c2cn(C)c3c(O)nccc23)cc2c1cnn2Cc1c(C)cc(F)cc1C` [Compound 33, N-(1-(4-fluoro-2,6-dimethylbenzyl)-6-(7-hydroxy-1-methyl-1H-pyrrolo[2,3-c]pyridin-3-yl)-1H-indazol-4-yl)ethanesulfonamide], over 6.00; in that of `CCS(=O)(=O)Nc1cc(-c2cn(CCCl)c3c(O)nccc23)cc2c1ccn2Cc1ccc(Cl)c(Cl)c1` [Compound 87, N-(6-(1-(2-chloroethyl)-7-hydroxy-1H-pyrrolo[2,3-c]pyridin-3-yl)-1-(3,4-dichlorobenzyl)-1H-indol-4-yl)ethanesulfonamide], over 6.00.
The molecule `CS(=O)(=O)Nc1cc(-c2cn(CCCl)c3c(O)nccc23)cc2c1ccn2Cc1ccc(F)cc1` [Compound 79, N-(6-(1-(2-chloroethyl)-7-hydroxy-1H-pyrrolo[2,3-c]pyridin-3-yl)-1-(4-fluorobenzyl)-1H-indol-4-yl)methanesulfonamide] had a pIC50 (120 h) of under 7.00.
Still for that read-out and setting: in the case of `Cn1cc(-c2cc(C(C)(C)O)c3ccn(CC4CC(F)(F)C4)c3c2)c2cc[nH]c(=O)c21` [Compound 106, 3-(1-((3,3-difluorocyclobutyl)methyl)-4-(2-hydroxypropan-2-yl)-1H-indol-6-yl)-1-methyl-1,6-dihydro-7H-pyrrolo[2,3-c]pyridin-7-one] it was over 6.00; in that of `CS(=O)(=O)Nc1cc(-c2cn(CC3CO3)c3c(O)nccc23)cc2c1ccn2Cc1ccccc1` (stereo not drawn) [Compound 98, N-(1-benzyl-6-(7-hydroxy-1-(oxiran-2-ylmethyl)-1H-pyrrolo[2,3-c]pyridin-3-yl)-1H-indol-4-yl)methanesulfonamide], over 6.00.
In turn, `Cn1cc(C(=O)c2ccccc2)c2ccnc(O)c21` [Compound 5, (7-hydroxy-1-methyl-1H-pyrrolo[2,3-c]pyridin-3-yl)(phenyl)methanone] had a pIC50 (120 h) of under 5.30.
Same read-out and setting: in the case of `C=CC(=O)Cn1cc(-c2cc(NS(C)(=O)=O)c3ccn(Cc4ccccc4)c3c2)c2ccnc(O)c21` [Compound 97, N-(1-benzyl-6-(7-hydroxy-1-(2-oxobut-3-en-1-yl)-1H-pyrrolo[2,3-c]pyridin-3-yl)-1H-indol-4-yl)methanesulfonamide] it was under 7.00.
In turn, `Cc1cc(F)cc(C)c1Cn1ccc2c(C(C)(C)O)cc(-c3cn(C)c4c(=O)[nH]ccc34)cc21` [Compound 108, 3-(1-(4-fluoro-2,6-dimethylbenzyl)-4-(2-hydroxypropan-2-yl)-1H-indol-6-yl)-1-methyl-1,6-dihydro-7H-pyrrolo[2,3-c]pyridin-7-one] showed a pIC50 (120 h) of over 6.00.
The same measure, in the same setting: in the case of `Cn1cc(-c2nc3c(NS(C)(=O)=O)cccc3n2Cc2ccc(F)cc2)c2ccnc(O)c21` [Compound 39, N-(1-(4-fluorobenzyl)-2-(7-hydroxy-1-methyl-1H-pyrrolo[2,3-c]pyridin-3-yl)-1H-benzo[d]imidazol-4-yl)methanesulfonamide] it was over 6.00; in that of `CNS(=O)(=O)CCc1ccc(OCC2CCC2)cc1C(=O)c1cn(C)c2c(O)nccc12` [Compound 14, 2-(4-(cyclobutylmethoxy)-2-(7-hydroxy-1-methyl-1H-pyrrolo[2,3-c]pyridine-3-carbonyl)phenyl)-N-methylethane-1-sulfonamide], under 6.00.
Same read-out and setting: in the case of `Cn1cc(-c2cc(C(C)(C)O)c3ccn(Cc4cccc(F)c4)c3c2)c2cc[nH]c(=O)c21` [Compound 107, 3-(1-(3-fluorobenzyl)-4-(2-hydroxypropan-2-yl)-1H-indol-6-yl)-1-methyl-1,6-dihydro-7H-pyrrolo[2,3-c]pyridin-7-one] it was over 6.00; in that of `CCS(=O)(=O)Nc1cc(-c2cn(C)c3c(O)nccc23)cc2c1ccn2Cc1c(C)cc(F)cc1C` [Compound 27, N-(1-(4-fluoro-2,6-dimethylbenzyl)-6-(7-hydroxy-1-methyl-1H-pyrrolo[2,3-c]pyridin-3-yl)-1H-indol-4-yl)ethanesulfonamide], over 6.00.
The molecule `CCS(=O)(=O)Nc1cc(-c2cn(CCCl)c3c(O)nccc23)cc2c1ccn2Cc1c(C)cccc1C` [Compound 96, N-(6-(1-(2-chloroethyl)-7-hydroxy-1H-pyrrolo[2,3-c]pyridin-3-yl)-1-(2,6-dimethylbenzyl)-1H-indol-4-yl)ethanesulfonamide] showed a pIC50 of under 7.00.
In turn, `CCS(=O)(=O)Nc1cc(-c2cn(C)c3c(O)nccc23)cc2c1cnn2Cc1cccc2c1ccn2C` [Compound 45, N-(6-(7-hydroxy-1-methyl-1H-pyrrolo[2,3-c]pyridin-3-yl)-1-((1-methyl-1H-indol-4-yl)methyl)-1H-indazol-4-yl)ethanesulfonamide] had a pIC50 (120 h) of under 7.00.
Take `Cn1cc(-c2cc(NS(C)(=O)=O)c3ccn(CC4CC(F)(F)C4)c3c2)c2cc[nH]c(=O)c21` [Compound 73, N-(1-((3,3-difluorocyclobutyl)methyl)-6-(1-methyl-7-oxo-6,7-dihydro-1H-pyrrolo[2,3-c]pyridin-3-yl)-1H-indol-4-yl)methanesulfonamide]: the pIC50 (120 h) is 7.21.
Molecule “N-(1-benzhydryl-6-(1-methyl-7-oxo-6,7-dihydro-1H-pyrrolo[2,3-c]pyridin-3-yl)-1H-indol-4-yl)ethanesulfonamide [Compound 130]” had a pIC50 of over 7.00.
Molecule `O=C(c1cccc(-c2ccc(F)cc2)c1)c1cn(CCCl)c2c(O)nccc12` [Compound 7, (1-(2-chloroethyl)-7-hydroxy-1H-pyrrolo[2,3-c]pyridin-3-yl)(4′-fluoro-[1,1′-biphenyl]-3-yl)methanone] showed a pIC50 (120 h) of 5.82.
Same read-out and setting: in the case of `CCS(=O)(=O)Nc1cc(-c2cn(C)c3c(O)nccc23)cc2c1ccn2Cc1cc(Cl)ccc1OC` [Compound 51, N-(1-(5-chloro-2-methoxybenzyl)-6-(7-hydroxy-1-methyl-1H-pyrrolo[2,3-c]pyridin-3-yl)-1H-indol-4-yl)ethanesulfonamide] it was over 6.00.
On the same count and under the same terms, in the case of `CC(=O)Nc1cc(-c2cn(C)c3c(=O)[nH]ccc23)cc2c1ccn2Cc1cccc(F)c1` [Compound 103, N-(1-(3-fluorobenzyl)-6-(1-methyl-7-oxo-6,7-dihydro-1H-pyrrolo[2,3-c]pyridin-3-yl)-1H-indol-4-yl)acetamide] it was over 6.00; in that of `Cn1cc(-c2cc(NS(C)(=O)=O)c3ccn(CC4(C)COC4)c3c2)c2cc[nH]c(=O)c21` [Compound 74, N-(6-(1-methyl-7-oxo-6,7-dihydro-1H-pyrrolo[2,3-c]pyridin-3-yl)-1-((3-methyloxetan-3-yl)methyl)-1H-indol-4-yl)methanesulfonamide], 6.87.
With `Cn1cc(-c2c[nH]c3ccc(-c4ccc(F)cc4)cc23)c2ccnc(O)c21` [Compound 17, 3-(5-(4-fluorophenyl)-1H-indol-3-yl)-1-methyl-1H-pyrrolo[2,3-c]pyridin-7-ol], for the setting “120 h”, the pIC50 is under 6.00.
For `CC(=O)Nc1cccc2c1cc(-c1cn(C)c3c(O)nccc13)n2[C@@H](c1ccccc1)C1CCOCC1` [Compound 118, (R)-N-(2-(7-hydroxy-1-methyl-1H-pyrrolo[2,3-c]pyridin-3-yl)-1-(phenyl(tetrahydro-2H-pyran-4-yl)methyl)-1H-indol-4-yl)acetamide], the pIC50 (120 h) is over 6.00.
`CCS(=O)(=O)Nc1cc(-c2cn(C)c3c(O)nccc23)cc2c1cnn2Cc1cccc2ccsc12` [Compound 44, N-(1-(benzo[b]thiophen-7-ylmethyl)-6-(7-hydroxy-1-methyl-1H-pyrrolo[2,3-c]pyridin-3-yl)-1H-indazol-4-yl)ethanesulfonamide] showed a pIC50 (120 h) of under 7.00.
The same measure, in the same setting: in the case of `Cc1cccc(Cl)c1Cn1ccc2c(C(C)(C)O)cc(-c3cn(C)c4c(=O)[nH]ccc34)cc21` [Compound 114, 3-(1-(2-chloro-6-methylbenzyl)-4-(2-hydroxypropan-2-yl)-1H-indol-6-yl)-1-methyl-1,6-dihydro-7H-pyrrolo[2,3-c]pyridin-7-one] it was over 6.00; in that of `Cn1cc(-c2cc(NS(C)(=O)=O)c3ccn(C(C)(c4ccccn4)c4ccccn4)c3c2)c2cc[nH]c(=O)c21` [Compound 132, N-(1-(1,1-di(pyridin-2-yl)ethyl)-6-(1-methyl-7-oxo-6,7-dihydro-1H-pyrrolo[2,3-c]pyridin-3-yl)-1H-indol-4-yl)methanesulfonamide], 7.89.
Consider `CCS(=O)(=O)Nc1cc(-c2cn(C)c3c(O)nccc23)cc2c1ccn2Cc1ccccc1` [Compound 49, N-(1-benzyl-6-(7-hydroxy-1-methyl-1H-pyrrolo[2,3-c]pyridin-3-yl)-1H-indol-4-yl)ethanesulfonamide], for which the pIC50 (120 h) was over 6.00.
Still for that read-out and setting: in the case of `CCS(=O)(=O)Nc1cc(-c2cn(C)c3c(O)nccc23)cc2c1ccn2Cc1ccc(F)cc1Cl` [Compound 26, N-(1-(2-chloro-4-fluorobenzyl)-6-(7-hydroxy-1-methyl-1H-pyrrolo[2,3-c]pyridin-3-yl)-1H-indol-4-yl)ethanesulfonamide] it was over 6.70.

The values above are taken from US11840533B2, “Pyridinone-based epigenetic modifiers and uses thereof” (THE BOARD OF TRUSTEES OF THE UNIVERSITY OF ILLINOIS, priority 2017, dated 2023).
